# In patent publication US20100003724A1, “CHEMICALLY MODIFIED NUCLEOSIDE 5'-TRIPHOSPHATES FOR THERMALLY INITIATED AMPLIFICATION OF NUCLEIC ACID” (priority 2008, published 2010):
# Where two headings read alike, the source gives them in different places.
# Key:
# [1] = target: Klenow (exo-) DNA polymerase (Escherichia coli, UniProt P00582, D355A/E357A); settings: for substrate for Klenow (exo-) DNA polymerase (incorporation into the primer): room temperature, unheated 3′-substituted dTTP; for substrate for Klenow (exo-) DNA polymerase (incorporation and extension): after a 40 minute preheating step at 95° C.
# Sequence of Klenow (exo-) DNA polymerase (P00582 324-928 D355A/E357A): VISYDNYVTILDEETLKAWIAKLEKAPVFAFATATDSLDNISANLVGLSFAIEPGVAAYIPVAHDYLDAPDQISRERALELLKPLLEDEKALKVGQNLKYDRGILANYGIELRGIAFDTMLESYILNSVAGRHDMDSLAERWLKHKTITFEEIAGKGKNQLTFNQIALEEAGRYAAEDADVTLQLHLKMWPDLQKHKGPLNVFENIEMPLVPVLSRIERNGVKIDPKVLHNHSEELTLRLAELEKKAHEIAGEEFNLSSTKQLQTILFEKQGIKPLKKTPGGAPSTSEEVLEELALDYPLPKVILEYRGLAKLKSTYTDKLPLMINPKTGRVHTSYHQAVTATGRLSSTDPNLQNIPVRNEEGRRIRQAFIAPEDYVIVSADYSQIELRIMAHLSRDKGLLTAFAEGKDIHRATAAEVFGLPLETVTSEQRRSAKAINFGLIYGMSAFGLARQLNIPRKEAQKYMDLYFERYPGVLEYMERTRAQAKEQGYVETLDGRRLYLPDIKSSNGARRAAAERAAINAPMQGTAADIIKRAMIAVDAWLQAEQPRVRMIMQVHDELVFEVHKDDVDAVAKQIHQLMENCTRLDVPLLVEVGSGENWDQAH
# Procedure: The ability of Klenow (exo-) DNA polymerase to perform room temperature primer extensions of a pre-annealed primer/template duplex was evaluated in 50 mM NaCl, 10 mM Tris-HCl (pH 7.9), 10 mM MgCl, 1 mM DTT, 0.5 units of enzyme, 0.2 mM dATP and in the presence of one of the following 3′-substituted dTTP derivatives: 3′-THP-dTTP, 3′-MTHP-dTTP or 3′-THF-dTTP (FIG. 4 (top)).
# [2] = for Concentration of unmodified dTTP: 250 μM solution of 3′-substituted dTTP, 95° C., PCR buffer (pH 8.4 at 25° C.); for cleavage of the 3′-ester group: within 60 minutes of incubation
# Procedure: Conversion of the 3′-substituted dTTP to the corresponding unmodified dTTP was investigated in PCR buffer (pH 8.4 at 25° C., Table 1) at 20° C. and 95° C. The reactions were monitored by analysis of the incubated mixtures by reverse-phase and anion-exchange HPLC.
# [3] = system: Lambda DNA and HIV-1 DNA systems; settings: one 3′-substituted dTTP derivative in place of natural dTTP; compared to all four natural dNTPs
# Procedure: For the Lambda DNA and HIV-1 DNA systems (Table 2), PCR conditions were used where non-specific amplification products, including primer dimers, readily formed in the presence of template. These conditions employed 1 μM concentration of both the forward and reverse oligonucleotide primers, 10 HIV-1 or 10,000 Lambda DNA copies of template, 0.2 mM each of dNTP or 3′-substituted dNTP, and 2.0 mM MgCl2. Each mixture contained 50 ng of Human Genomic DNA. The thermal cycling parameters were as follows: 95° C. for 2 min; 40 cycles of [95° C. for 40 sec; 56° C. for 30 sec; 72° C. for 2 min]; 72° C. for 7 min.
# Taq DNA polymerase = Taq DNA polymerase (Thermus aquaticus, UniProt P19821); experiment: Primer extension with Taq DNA polymerase at room temperature; settings: 25 units of enzyme
# Sequence of Taq DNA polymerase (P19821 whole entry, the tested form may be a part): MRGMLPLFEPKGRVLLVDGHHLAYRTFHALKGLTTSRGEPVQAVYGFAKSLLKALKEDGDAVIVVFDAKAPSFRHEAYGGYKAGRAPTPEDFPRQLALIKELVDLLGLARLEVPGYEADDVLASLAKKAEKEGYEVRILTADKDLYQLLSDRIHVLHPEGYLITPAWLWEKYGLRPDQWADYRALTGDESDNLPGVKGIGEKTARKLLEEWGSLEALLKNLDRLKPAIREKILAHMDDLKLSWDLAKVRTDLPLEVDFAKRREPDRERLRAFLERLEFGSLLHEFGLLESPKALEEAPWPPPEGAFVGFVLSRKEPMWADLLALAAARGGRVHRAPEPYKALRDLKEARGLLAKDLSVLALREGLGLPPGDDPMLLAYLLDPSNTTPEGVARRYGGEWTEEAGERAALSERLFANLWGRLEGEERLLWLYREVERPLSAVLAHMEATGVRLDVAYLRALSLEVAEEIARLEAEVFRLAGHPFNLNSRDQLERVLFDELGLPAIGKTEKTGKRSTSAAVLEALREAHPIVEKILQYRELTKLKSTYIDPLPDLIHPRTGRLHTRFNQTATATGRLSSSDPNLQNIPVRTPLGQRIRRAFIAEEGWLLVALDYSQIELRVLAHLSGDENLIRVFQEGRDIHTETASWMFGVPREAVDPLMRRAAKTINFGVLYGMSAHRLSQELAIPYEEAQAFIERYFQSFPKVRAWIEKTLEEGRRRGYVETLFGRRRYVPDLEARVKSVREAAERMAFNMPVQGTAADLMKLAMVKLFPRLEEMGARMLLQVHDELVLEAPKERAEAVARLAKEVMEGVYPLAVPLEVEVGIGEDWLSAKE
# Source text: The extension experiments were repeated with Taq DNA polymerase at room temperature utilizing 25 units of enzyme and either 3′-THF-dTTP or 3′-Ac-dTTP.
# [4] = system: HIV-1 system (365 bp HIV-1 fragment); experiment: Hot Start PCR with 3′-THF-dNTPs substituted for natural dNTPs; format: biochemical; settings: 3′-THF dNTP substituted for its natural dNTP
# Procedure: Each mixture contained 50 ng of Human Genomic DNA.
# All permutations of substitution of one, two, three or four 3′-THF-dNTPs (from the group of 3′-THF-dATP, […], 3′-THF-dCTP and 3′-THF-dTTP) were examined for their natural counterpart and the resultant effect on reducing primer dimer formation. […] A combined substitution of two or more 3′-THF derivatives of dNTPs for natural dNTPs further improved PCR performance. Thus, combination of 3′-THF-dTTP and 3′-THF-dATP, as a replacement for dTTP and dATP, nearly completely eliminated non-specific amplification products in the HIV-1 system (approximately 10-fold improvement, FIG. 7). Overall, there was a strong correlation between using more than one type of 3′-substituted dNTP in a PCR mixture with an efficiency and specificity of amplicon production.
SMILES,substrate for Klenow (exo-) DNA polymerase (incorporation into the primer) [1],Concentration of unmodified dTTP ([2]; 2 min),Concentration of unmodified dTTP ([2]; 10 min) [µM],Concentration of unmodified dTTP ([2]; 20 min) [µM],"cleavage of the 3′-acetyl group ([2]; PCR buffer, room temperature, after 24 hours of incubation) [%]",overall PCR performance [3],substrate for Taq DNA polymerase (Taq DNA polymerase),substrate for Klenow (exo-) DNA polymerase (incorporation and extension) [1],"cleavage of the 3′-ester group ([2]; PCR buffer, room temperature) [%]","PCR performance (non-specific amplification products, specific amplicon formation) [4]"
"CC(=O)OC1CC(n2cc(C)c(=O)[nH]c2=O)OC1COP(=O)(O)OP(=O)(O)OP(=O)(O)O (stereo not drawn) [3′-Ac-dTTP, 3′-O-acetyl-dTTP]",not a substrate,0 µM,5,18,6,not as good as with natural dTTP,not substrates,–,–,–
COC1(O[C@H]2C[C@H](n3cc(C)c(=O)[nH]c3=O)O[C@@H]2COP(=O)(O)OP(=O)(O)OP(=O)(O)O)CCOCC1 [3′-MTHP-dTTP],not substrates,2 µM,21,47,–,–,–,became substrates for enzyme,–,–
COCC(=O)O[C@H]1C[C@H](n2cc(C)c(=O)[nH]c2=O)O[C@@H]1COP(=O)(O)OP(=O)(O)OP(=O)(O)O [3′-O[CH3OAc]],–,35 µM,140,195,–,–,–,–,4,–
Cc1cn([C@H]2C[C@H](OC(=O)COc3ccccc3)[C@@H](COP(=O)(O)OP(=O)(O)OP(=O)(O)O)O2)c(=O)[nH]c1=O [3′-O[PhOAc]],–,50 µM,170,209,–,–,–,–,10,–
Nc1ncnc2c1ncn2C1CC(OC2CCCO2)C(COP(=O)(O)OP(=O)(O)OP(=O)(O)O)O1 (stereo not drawn) [3′-THF-dATP],–,–,–,–,–,–,–,–,–,strong reduction of both non-specific amplification products and an increase of specific amplicon formation
Cc1cn([C@H]2C[C@H](OC3CCCO3)[C@@H](COP(=O)(O)OP(=O)(O)OP(=O)(O)O)O2)c(=O)[nH]c1=O (stereo partly drawn) [3′-THF-dTTP],not substrates,7 µM,39,57,–,–,not substrates,became substrates for enzyme,–,–
Cc1cn([C@H]2C[C@H](OC3CCCCO3)[C@@H](COP(=O)(O)OP(=O)(O)OP(=O)(O)O)O2)c(=O)[nH]c1=O (stereo partly drawn) [3′-THP-dTTP],not substrates,≦1 μM,10,16,–,not as good as with natural dTTP,–,became substrates for enzyme,–,–
